Experimental data reported in patent US20060258598A1, “Alpha-keto carbonyl calpain inhibitors” (priority 2003, published 2006).

Columns and labels:
20S Proteasome = target: T1, 20S Proteasome (Oryctolagus cuniculus, UniProt G1T4Q9); experiment: 20S Proteasome assay; assay type: biochemical, Rabbit; conditions: substrate Suc-Leu-Leu-Val-Tyr-AMC; read-out: 20S Prot IC50
T1 sequence (G1T4Q9 1-263): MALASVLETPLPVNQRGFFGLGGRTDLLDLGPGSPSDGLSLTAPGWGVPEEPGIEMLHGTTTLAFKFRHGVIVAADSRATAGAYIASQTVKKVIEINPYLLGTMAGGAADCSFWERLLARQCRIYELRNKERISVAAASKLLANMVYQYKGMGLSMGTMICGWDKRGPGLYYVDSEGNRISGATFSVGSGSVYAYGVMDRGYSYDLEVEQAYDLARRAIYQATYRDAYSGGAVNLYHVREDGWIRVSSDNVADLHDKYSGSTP
Protocol: 25 μl of a reaction buffer containing 400 μM of the fluorogenic substrate Suc-Leu-Leu-Val-Tyr-AMC (Bachem) are dispensed per well of a white microtiter plate. Test compounds dissolved in 0.5 μl DMSO are added. To start the reaction; 25 μl of reaction buffer containing 35 ng of enzyme (20S Proteasome, Rabbit, Calbiochem) are added. The increase in fluorescence (excitation at 360 nm; emission at 440 nm) is measured over 30 min at 30° C. at 30″. The IC50's are then determined from the slopes.

[1] = tested on: cellular calpains in C2C12 myoblasts; experiment: Calpain inhibition assay in C2C12 myoblasts; assay type: cell-based; conditions: 2 h incubation, calcium ionophore Br-A-23187, read-out: Calp I IC50 Myoblast
How it was run: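 Confluent C2C12 myoblasts in fusion medium (DMEM, 5% horse serum) exposed to compound for 2 h at 37 °C, then loaded with 400 μM Suc-Leu-Tyr-AMC for 20 min at room temperature in buffer with 4 mM CaCl2, HEPES pH 7.25. Calpains activated by Br-A-23187 ionophore (20 μM in added buffer); AMC fluorescence read each minute for 60 min at 37 °C to derive IC50.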

[2] = tested on: Primary fibroblasts from donors with Friedreich Ataxia (FRDA); experiment: BSO assay (cell viability under BSO-induced oxidative stress); assay type: cell-based, human; conditions: Homo sapiens, Fibroblast, 24 h preincubation, 1 mM BSO
How it was run: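 FRDA patient primary fibroblasts were pretreated with compounds for 24 h, then exposed to 1 mM BSO (final) until toxicity appeared in BSO-only controls (typically 16–48 h). Viability was read by calcein AM (1.2 μM)/ethidium homodimer (4 μM) staining, 60 min RT, fluorescence 485/525 nm.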

Question: Which IC50 (20S Proteasome) does the source give for CCNC(=O)C(=O)[C@H](Cc1ccc(Br)cc1)NC(=O)[C@H](CC(C)C)NC(=O)CCCCC1CCSS1 (stereo partly drawn) [Example 64] here?
Answer: The IC50 was 40 nM.

Question: And the IC50 [1]?
Answer: Its IC50 is 500 nM.

Question: What about the EC50 [2] of the same compound?
Answer: The EC50 was 1000 nM.
